For assay [1], the target named is T1, AHK3 (Arabidopsis thaliana, UniProt Q9C5U1).
T1 sequence (Q9C5U1 1-1036): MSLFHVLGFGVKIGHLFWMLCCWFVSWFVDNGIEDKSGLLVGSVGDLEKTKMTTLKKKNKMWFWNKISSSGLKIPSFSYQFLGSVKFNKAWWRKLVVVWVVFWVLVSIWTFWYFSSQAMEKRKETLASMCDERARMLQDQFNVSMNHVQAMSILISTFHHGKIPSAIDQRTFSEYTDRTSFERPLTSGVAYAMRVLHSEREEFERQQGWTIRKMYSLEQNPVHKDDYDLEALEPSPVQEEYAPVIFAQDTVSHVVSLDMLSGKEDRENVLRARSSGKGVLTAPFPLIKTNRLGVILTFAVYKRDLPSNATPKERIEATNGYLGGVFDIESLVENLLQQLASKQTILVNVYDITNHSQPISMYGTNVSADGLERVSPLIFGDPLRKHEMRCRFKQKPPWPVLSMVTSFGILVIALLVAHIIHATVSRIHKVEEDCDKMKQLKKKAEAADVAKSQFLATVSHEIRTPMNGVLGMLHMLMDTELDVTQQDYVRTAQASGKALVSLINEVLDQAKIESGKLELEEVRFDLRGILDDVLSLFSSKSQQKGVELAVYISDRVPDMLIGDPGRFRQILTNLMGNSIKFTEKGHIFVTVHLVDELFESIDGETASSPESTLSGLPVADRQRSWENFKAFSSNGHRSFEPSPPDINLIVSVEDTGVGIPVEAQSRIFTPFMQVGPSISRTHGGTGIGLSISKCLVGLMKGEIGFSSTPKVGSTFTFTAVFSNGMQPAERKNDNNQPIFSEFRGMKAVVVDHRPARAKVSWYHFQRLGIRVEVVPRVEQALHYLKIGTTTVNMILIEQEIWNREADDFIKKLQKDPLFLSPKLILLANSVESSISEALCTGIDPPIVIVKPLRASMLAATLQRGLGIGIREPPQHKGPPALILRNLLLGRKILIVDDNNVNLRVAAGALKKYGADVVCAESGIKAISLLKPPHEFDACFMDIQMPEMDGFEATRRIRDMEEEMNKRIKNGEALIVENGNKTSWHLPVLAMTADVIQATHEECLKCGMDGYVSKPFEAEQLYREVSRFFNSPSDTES
The assay can be described thus: competition with [3H]tZ, plant microsomes. The class given is binding. Also noted: full-length cDNA in pB7FWG2-AHK3, C-terminal eGFP fusion, transiently expressed in Nicotiana benthamiana leaves, microsomes. Conditions: pH 7.4, 0-4 °C. An excerpt:
competition with [3H]tZ, plant microsomes on AHK3

Assay [2] deals with AHK4 (Arabidopsis thaliana, UniProt Q9C5U0). The assay can be described thus: biochemical.
Assay [3] deals with T2, AHK2 (Arabidopsis thaliana, UniProt Q9C5U2).
T2 sequence (Q9C5U2 1-1176): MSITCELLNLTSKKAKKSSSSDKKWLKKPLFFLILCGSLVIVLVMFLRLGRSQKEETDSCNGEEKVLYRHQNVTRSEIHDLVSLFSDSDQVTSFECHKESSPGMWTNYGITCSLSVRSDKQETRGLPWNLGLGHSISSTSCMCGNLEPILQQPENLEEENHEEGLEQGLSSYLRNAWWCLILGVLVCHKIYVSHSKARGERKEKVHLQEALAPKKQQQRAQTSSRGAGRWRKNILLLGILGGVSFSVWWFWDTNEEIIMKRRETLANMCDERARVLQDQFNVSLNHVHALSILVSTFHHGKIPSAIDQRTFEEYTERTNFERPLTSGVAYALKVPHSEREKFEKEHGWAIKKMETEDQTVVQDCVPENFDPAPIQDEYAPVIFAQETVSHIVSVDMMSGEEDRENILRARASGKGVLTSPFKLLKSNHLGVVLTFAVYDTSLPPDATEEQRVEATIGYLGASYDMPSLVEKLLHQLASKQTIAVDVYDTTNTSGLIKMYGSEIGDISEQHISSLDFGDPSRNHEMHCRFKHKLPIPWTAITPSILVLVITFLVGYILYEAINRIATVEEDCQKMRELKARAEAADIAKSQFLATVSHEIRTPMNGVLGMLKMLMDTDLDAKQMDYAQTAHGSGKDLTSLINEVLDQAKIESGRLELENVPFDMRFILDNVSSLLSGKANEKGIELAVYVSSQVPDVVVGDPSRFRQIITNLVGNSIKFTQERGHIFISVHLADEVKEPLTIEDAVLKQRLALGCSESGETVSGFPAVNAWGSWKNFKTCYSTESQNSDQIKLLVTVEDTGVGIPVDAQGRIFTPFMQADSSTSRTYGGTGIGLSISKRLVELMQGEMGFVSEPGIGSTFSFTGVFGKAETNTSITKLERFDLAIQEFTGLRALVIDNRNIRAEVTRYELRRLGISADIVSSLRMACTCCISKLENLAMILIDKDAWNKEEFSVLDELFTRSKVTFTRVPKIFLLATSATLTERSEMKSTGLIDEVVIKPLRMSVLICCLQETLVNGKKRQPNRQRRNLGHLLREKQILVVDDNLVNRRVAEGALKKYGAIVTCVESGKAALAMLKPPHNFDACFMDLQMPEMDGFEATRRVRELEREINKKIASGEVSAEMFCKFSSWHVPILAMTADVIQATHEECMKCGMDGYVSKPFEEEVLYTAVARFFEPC
The assay can be described thus: biochemical. An excerpt: [3H]tZ saturation binding to plant microsomes, Scatchard on AHK2

The target in assay [4] is T3, ZmHK1 (Zea mays, UniProt Q9FRY7).
T3 sequence (Q9FRY7 1-974): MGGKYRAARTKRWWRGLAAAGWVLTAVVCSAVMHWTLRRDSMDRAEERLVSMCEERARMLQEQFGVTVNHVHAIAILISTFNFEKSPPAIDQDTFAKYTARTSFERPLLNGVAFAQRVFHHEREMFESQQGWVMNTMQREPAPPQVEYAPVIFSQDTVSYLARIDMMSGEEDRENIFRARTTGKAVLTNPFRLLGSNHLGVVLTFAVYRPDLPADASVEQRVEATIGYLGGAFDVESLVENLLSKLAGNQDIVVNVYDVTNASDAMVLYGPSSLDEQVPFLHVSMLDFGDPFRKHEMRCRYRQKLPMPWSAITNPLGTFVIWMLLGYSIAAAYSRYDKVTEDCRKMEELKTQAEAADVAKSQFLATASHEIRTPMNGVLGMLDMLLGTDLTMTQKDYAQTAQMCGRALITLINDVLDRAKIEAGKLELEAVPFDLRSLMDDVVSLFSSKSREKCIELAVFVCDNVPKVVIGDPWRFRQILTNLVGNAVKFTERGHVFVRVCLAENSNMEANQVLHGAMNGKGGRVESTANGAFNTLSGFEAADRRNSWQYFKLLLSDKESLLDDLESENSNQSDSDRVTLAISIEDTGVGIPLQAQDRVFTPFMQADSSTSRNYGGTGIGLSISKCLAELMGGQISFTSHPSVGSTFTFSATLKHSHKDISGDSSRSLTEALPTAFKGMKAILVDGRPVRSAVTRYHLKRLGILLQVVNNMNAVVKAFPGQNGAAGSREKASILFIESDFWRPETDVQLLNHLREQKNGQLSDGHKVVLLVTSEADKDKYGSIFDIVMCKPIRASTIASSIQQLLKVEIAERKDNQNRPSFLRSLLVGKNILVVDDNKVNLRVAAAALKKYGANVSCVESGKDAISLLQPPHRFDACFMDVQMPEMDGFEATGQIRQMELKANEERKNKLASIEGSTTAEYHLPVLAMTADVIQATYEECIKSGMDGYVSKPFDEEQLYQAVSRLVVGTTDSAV
The assay can be described thus: biochemical. An excerpt:
[3H]tZ saturation binding to plant microsomes, Scatchard on ZmHK1

The target of assay [5] is T1, AHK3. The assay can be described thus: biochemical. The source says:
[3H]tZ saturation binding to plant microsomes, Scatchard on AHK3

Assay [6] has as its target T3, ZmHK1. The assay can be described thus: competition with [3H]tZ, plant microsomes. Conditions: pH 7.4, 0-4 °C. The class given is binding. Also noted: full-length coding region in pB7FWG2-ZmHK1, C-terminal eGFP fusion, transiently expressed in Nicotiana benthamiana leaves, microsomes.
The target of assay [7] is T2, AHK2. The assay can be described thus: competition with [3H]tZ, plant microsomes. Conditions: pH 7.4, 0-4 °C. The class given is binding. An excerpt:
competition with [3H]tZ, plant microsomes on AHK2

In general, Kd refers to a measure of binding affinity in units of concentration.

Chain of AHK4 (Q9C5U0 whole entry): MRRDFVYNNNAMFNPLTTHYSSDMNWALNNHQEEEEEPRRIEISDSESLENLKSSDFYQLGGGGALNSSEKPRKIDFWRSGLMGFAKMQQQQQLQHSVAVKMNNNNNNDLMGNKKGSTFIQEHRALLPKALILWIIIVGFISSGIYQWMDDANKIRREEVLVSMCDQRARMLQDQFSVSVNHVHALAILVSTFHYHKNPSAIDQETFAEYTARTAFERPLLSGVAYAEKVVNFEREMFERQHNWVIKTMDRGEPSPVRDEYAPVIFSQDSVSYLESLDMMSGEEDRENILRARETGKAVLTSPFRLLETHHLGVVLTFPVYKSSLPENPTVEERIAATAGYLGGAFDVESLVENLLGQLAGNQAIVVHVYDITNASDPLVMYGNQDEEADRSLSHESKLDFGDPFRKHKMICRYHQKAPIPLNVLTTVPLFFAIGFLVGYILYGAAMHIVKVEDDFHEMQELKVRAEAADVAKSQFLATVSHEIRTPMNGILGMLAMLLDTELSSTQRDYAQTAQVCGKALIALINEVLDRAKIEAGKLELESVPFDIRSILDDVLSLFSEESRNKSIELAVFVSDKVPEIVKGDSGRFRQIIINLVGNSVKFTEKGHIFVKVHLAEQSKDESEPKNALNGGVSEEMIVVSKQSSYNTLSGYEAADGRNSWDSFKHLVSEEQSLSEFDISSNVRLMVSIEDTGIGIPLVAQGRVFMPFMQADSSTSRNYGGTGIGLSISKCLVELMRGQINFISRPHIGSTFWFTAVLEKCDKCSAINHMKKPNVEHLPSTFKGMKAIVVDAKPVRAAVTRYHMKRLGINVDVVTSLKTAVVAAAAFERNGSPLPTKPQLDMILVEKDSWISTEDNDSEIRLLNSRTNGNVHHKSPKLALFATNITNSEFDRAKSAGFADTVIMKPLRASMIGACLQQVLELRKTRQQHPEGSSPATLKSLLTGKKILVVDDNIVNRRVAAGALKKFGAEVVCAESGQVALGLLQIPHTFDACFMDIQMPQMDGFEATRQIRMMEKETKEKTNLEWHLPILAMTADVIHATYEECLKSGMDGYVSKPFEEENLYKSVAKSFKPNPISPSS

In the case of `Nc1ncnc2nc[nH]c12` [Ade, adenine], the Kd in assay [1] is more than 10000 nM.
In the case of `C/C(=C\CNc1ncnc2[nH]cnc12)CO` [tZ, trans-zeatin], the dissociation constant Kd is 2 to 8 nM in assay [2], 1.93 ± 0.26 nM in assay [3], 7.97 ± 1.96 nM in assay [4] and 4.26 ± 1.69 nM in assay [5].
For `C[C@H](CO)CCNc1ncnc2nc[nH]c12` [DZ, dihydrozeatin], the Kd in assay [6] worked out at 128 ± 47 nM; in assay [1] it was 33.1 ± 6.2 nM; in assay [7] it was 161 ± 55 nM.
`CC(C)=CCNc1ncnc2nc[nH]c12` [iP, isopentenyladenine]: the Kd in assay [6] was determined as 0.61 ± 0.27 nM; in assay [1] it was 42 ± 13.5 nM; in assay [7] it was 1.42 ± 0.52 nM.

Source of the values: publication PMC4378623, “Plant membrane assays with cytokinin receptors underpin the unique role of free cytokinin bases as biologically active ligands” (Journal of Experimental Botany, 2015).
